Here are results for seven compounds from patent publication US8609836B2, “4-aryl-2-anilino-pyrimidines” (Janssen Pharmaceutica NV, priority 2008, dated 2013).

Molecules are shown by their SMILES.

Assay [1] concerns the target CDK1/CyclinB (h) (Homo sapiens, UniProt P06493). The assay can be described thus: CDK1/CyclinB human kinase inhibition, Invitrogen's FRET assay (Z'lyte). The format is biochemical. As to conditions: read-out: CDK1 pIC50 (converted). On the procedure:
(§1) The in vitro inhibition of a panel of kinases was assessed using either the scintillation proximity assay (SPA) as described by Cook, N. D. et al., Advances in Experimental Medicine and Biology (1991), 36; p. 525-528.
(§2) All kinases are pre-diluted to a 10× working concentration prior to addition into the assay. The composition of the dilution buffer for each kinase is detailed below.
In a final reaction volume of 10 μl, CDK1/CyclinB (h) (0.2 μg/ml) is incubated with 50 mM Hepes pH 7.5, 10 mM MgCl2, 1 mM EGTA, 0.01% Brij-35, 2 μM Z'lyte Ser/Thr peptide 12 and 10 μM ATP (Invitrogen's FRET assay). After incubation of 60 minutes at room temperature, the reaction is stopped by addition of 5 μL development reagent containing protease mix. After 60 minutes room temperature the development reaction is stopped by adding 5 μl stop solution. The plate is then read in fluorescence plate reader with excitation: 390 nm and dual emission: 460 and 538 nm. Emission ratio is determined to the formula=Emission signal intensity at 460 nm/Emission signal intensity at 538 nm.

Assay [2] has as its target PLK4 (h) (Homo sapiens, UniProt O00444). In words: PLK-4 human kinase inhibition, scintillation proximity assay (SPA). The format is biochemical. As to conditions: read-out: PLK4 pIC50 (converted). The procedure:
(§3) In the SPA technology the activity of the kinase of interest is measured using an appropriate biotinylated substrate that is incubated with the aforementioned kinase protein in the presence of (^33P) radiolabeled ATP. (^33P) Phosphorylation of the substrate is subsequently measured through binding of the phosphorylated substrate to streptavidine coated beads that are based on the scintillant poly(vinyl toluene) (PVT-Beads). The scintillation intensity is detected by imaging on Leadseeker.
as §2
(6.0 μCi/ml). After incubation of 60 minutes at room temperature, the reaction is stopped by addition of 40 μL of stop solution containing 8.7 mM EDTA, BSA 0.17%, 0.17% Triton X-100, 1.7 mg/ml SPA beads (GE-healthcare). The plate is centrifuged and read for Scintillation imaging on Leadseeker.
A general note: Scintillation proximity formats need no separation of bound from free tracer.

Assay [3] addresses PLK3 (h) (Homo sapiens, UniProt Q9H4B4). In words: PLK3 human kinase inhibition, SPA. Format: biochemical. As to conditions: read-out: PLK3 pIC50 (converted). The procedure:
as §1, §3, §2
In a final reaction volume of 30 μl, PLK3 (h) (30 μg/ml) is incubated with 50 mM Hepes pH 8.0, 2 mM MnCl2, 1 mM DTT, 2 μM of peptide Biotin-Tds linker-[…], 0.1 μM ATP and 2 nM [γ-^33P-ATP] (6.0 μCi/ml). After incubation of 20 minutes at room temperature, the reaction is stopped by addition of 40 μL of stop solution containing 8.7 mM EDTA, BSA 0.17%, 0.17% Triton X-100, 25 mg/ml SPA beads (GE-healthcare). The plate is centrifuged and read for Scintillation imaging on Leadseeker.

Assay [4] concerns the target GSK3β (h) (Homo sapiens, UniProt P49841). The assay can be described thus: GSK-3β human kinase inhibition, SPA. Format: biochemical. To be noted: read-out: GSK3b pIC50 (converted). On the procedure:
as §1, §3, §2
In a final reaction volume of 30 μl, GSK3β (h) (1 μg/ml) is incubated with 25 mM Tris pH 7.4, 10 mM MgCl2, 1 mM DTT, 1 μM peptide Biotin-[…]-OH, 1 μM ATP and 2 nM [γ-^33P-ATP] (6.0 μCi/ml). After incubation of 60 minutes at room temperature, the reaction is stopped by addition of 40 μL of stop solution containing 8.7 mM EDTA, BSA 0.17%, 0.17% Triton X-100, 6.25 mg/ml SPA beads (GE-healthcare). The plate is centrifuged and read for Scintillation imaging on Leadseeker.

Assay [5] addresses CDK4/CyclinD1 (h) (Homo sapiens, UniProt P11802). The assay can be described thus: CDK4/CyclinD1 human kinase inhibition, SPA with GST-pRb substrate. The format is biochemical. To be noted: read-out: CDK4 pIC50 (converted). The procedure:
as §1, §3, §2
In a final reaction volume of 30 μl, CDK4/CyclinD1 (h) (2.5 μg/ml) is incubated with 50 mM Hepes pH 7.5, 8 mM NaF, 20 mM MgCl2, 1 mM DTT, 40 μg/ml of substrate GST-pRb, 2 nM [γ-^33P-ATP] (6.0 μCi/ml). After incubation of 60 minutes at room temperature, the reaction is stopped by addition of 40 μL of stop solution containing 8.7 mM EDTA, 0.17% Triton X-100, 25 mg/ml Glutathion SPA Beads (GE-healthcare). The plate is centrifuged and read for Scintillation topcount analyzer.

Assay [6] concerns the target PLK2 (h) (Homo sapiens, UniProt Q9NYY3). The assay can be described thus: PLK2 human kinase inhibition, SPA. The format is biochemical. As to conditions: read-out: PLK2 pIC50 (converted). On the procedure: as §1, §3, §2
In a final reaction volume of 30 μl, PLK2 (h) (30 μg/ml) is incubated with 50 mM Hepes pH 8.0, 2 mM MnCl2, 1 mM DTT, 2 μM of peptide Biotin-Tds linker-[…], 0.1 μM ATP and 2 nM [γ-^33P-ATP] (6.0 μCi/ml). After incubation of 20 minutes at room temperature, the reaction is stopped by addition of 40 μL of stop solution containing 8.7 mM EDTA, BSA 0.17%, 0.17% Triton X-100, 25 mg/ml SPA beads (GE-healthcare). The plate is centrifuged and read for Scintillation imaging on Leadseeker.

The target in assay [7] is PLK1 T210D (h) (Homo sapiens, UniProt P53350, T210D). The assay can be described thus: PLK1 human kinase inhibition, SPA. The format is biochemical. As to conditions: read-out: PLK1 pIC50 (converted). On the procedure: as §1, §3, §2
PLK1 T210D (h), sequence (P53350 whole entry T210D): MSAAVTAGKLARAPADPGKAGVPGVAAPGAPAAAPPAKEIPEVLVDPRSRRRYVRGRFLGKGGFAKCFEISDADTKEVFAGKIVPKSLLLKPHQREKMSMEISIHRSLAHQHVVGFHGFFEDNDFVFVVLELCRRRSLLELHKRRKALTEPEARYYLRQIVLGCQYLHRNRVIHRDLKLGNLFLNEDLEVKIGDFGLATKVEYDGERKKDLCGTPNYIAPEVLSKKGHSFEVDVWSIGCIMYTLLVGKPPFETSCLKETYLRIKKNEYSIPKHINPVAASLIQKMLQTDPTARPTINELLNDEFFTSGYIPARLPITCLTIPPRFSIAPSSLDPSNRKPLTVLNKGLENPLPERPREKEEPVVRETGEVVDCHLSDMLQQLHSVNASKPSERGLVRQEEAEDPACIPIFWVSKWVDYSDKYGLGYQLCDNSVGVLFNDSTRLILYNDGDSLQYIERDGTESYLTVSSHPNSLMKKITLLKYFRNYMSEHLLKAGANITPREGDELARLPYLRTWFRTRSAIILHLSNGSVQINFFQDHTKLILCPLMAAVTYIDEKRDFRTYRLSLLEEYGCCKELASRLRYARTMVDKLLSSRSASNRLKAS
In a final reaction volume of 30 μl, PLK1 T210D (h) (0.125 ng/ml) is incubated with 50 mM Hepes pH 8.0, 2 mM MnCl2, 1 mM DTT, 2 μM of peptide Biotin-Tds linker-[…], 0.1 μM ATP and 2 nM [γ-^33P-ATP] (6.0 μCi/ml). After incubation of 40 minutes at room temperature, the reaction is stopped by addition of 40 μL of stop solution containing 8.7 mM EDTA, BSA 0.17%, 0.17% Triton X-100, 25 mg/ml SPA beads (GE-healthcare). The plate is centrifuged and read for Scintillation imaging on Leadseeker.

For assay [8], the target named is AuroraB (h) (Homo sapiens, UniProt Q96GD4). In words: Aurora-B human kinase inhibition, SPA. Format: biochemical. To be noted: read-out: AuroraB pIC50 (converted). The procedure:
as §1, §3, §2
In a final reaction volume of 30 μl, AuroraB (h) (0.5 μg/ml) is incubated with 60 mM Hepes pH 7.5, 3 mM MgCl2, 3 mM MnCl2, 3 μM Na3VO4, 0.05 mg/ml PEG, 2 mM DTT, 3 μM Biotin-[…]-OH, 0.5 μM ATP and 2.2 nM [γ-^33P-ATP] (6.8 μCi/ml). After incubation of 60 minutes at room temperature, the reaction is stopped by addition of 40 μL of stop solution containing 8.7 mM EDTA, BSA 0.17%, 0.17% Triton X-100, 5 mg/ml SPA beads (GE-healthcare). The plate is centrifuged and read for Scintillation imaging on Leadseeker.

The test system of assay [9] is A2780. In words: Cellular proliferation assay (Alamar blue), A2780. The format is cell-based. As to conditions: Homo sapiens, 10% FCS, 72 hours with compound, Alamar blue 24 h, read-out: A2780 (cellular proliferation assay, Table 4) (converted). On the procedure:
(§4) […] functional properties of these compounds were tested in cellular proliferation assays on a panel of different cell lines in the presence of 10% FCS serum (37° C. and 5% (v/v) CO2). In a first step these cells were seeded and incubated for 24 hours in the absence of compound. In the second step the cells were incubated for 72 hours with the compounds to be tested for 72 hours. The viable cell number was finally assessed in a standard Alamar blue cell viability assay.
(§5) The viable cell number was assessed by incubation for either 4 h (HCT-116, H1299) 6 h (U87-MG) or 24 h (A2780, MDA-MB-231) with Alamar blue (Resazurin 9 μg/ml, K-Ferrocyanide 90 μM, K-Ferricyanide 90 μM) and the converted fluorescent product was quantified on a fluorescent plate reader (544 nm/590 nm). Effect of the compounds is calculated as of on control cells.
(In general: The colour change of resazurin is a common sign of viable cells or microbes.)

The test system of assay [10] is HCT-116. In words: Cellular proliferation assay (Alamar blue), HCT-116. Format: cell-based. To be noted: Homo sapiens, 10% FCS, 72 hours with compound, Alamar blue 4 h. The procedure: as §4, §5
Assay [11] concerns H1299. In words: Cellular proliferation assay (Alamar blue), H1299. The format is cell-based. As to conditions: Homo sapiens, NCI-H1299; 10% FCS; 72 hours with compound; Alamar blue 4 h. On the procedure: as §4, §5
The subject of assay [12] is MDA-MB-231. The assay can be described thus: Cellular proliferation assay (Alamar blue), MDA-MB-231. To be noted: Homo sapiens, 10% FCS, 72 hours with compound, Alamar blue 24 h, read-out: MDA/MB231 (cellular proliferation assay, Table 4) (converted). Format: cell-based. On the procedure: as §4, §5
Assay [13] has as its system U87-MG. The assay can be described thus: Cellular proliferation assay (Alamar blue), U87-MG. The format is cell-based. To be noted: Homo sapiens, U-87 MG; 10% FCS; 72 hours with compound; Alamar blue 6 h; read-out: U87-MG (cellular proliferation assay, Table 4) (converted). On the procedure:
as §4, §5

CDK1/CyclinB (h), sequence (P06493 whole entry): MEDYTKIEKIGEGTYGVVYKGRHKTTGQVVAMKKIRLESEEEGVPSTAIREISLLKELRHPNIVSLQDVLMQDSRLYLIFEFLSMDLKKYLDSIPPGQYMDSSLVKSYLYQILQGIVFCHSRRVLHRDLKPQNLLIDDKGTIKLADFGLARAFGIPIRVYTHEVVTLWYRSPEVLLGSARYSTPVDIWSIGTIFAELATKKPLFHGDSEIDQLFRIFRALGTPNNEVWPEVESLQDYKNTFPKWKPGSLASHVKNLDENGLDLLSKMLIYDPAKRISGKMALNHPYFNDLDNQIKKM
CDK1/CyclinB (h), sequence (P14635 whole entry partner): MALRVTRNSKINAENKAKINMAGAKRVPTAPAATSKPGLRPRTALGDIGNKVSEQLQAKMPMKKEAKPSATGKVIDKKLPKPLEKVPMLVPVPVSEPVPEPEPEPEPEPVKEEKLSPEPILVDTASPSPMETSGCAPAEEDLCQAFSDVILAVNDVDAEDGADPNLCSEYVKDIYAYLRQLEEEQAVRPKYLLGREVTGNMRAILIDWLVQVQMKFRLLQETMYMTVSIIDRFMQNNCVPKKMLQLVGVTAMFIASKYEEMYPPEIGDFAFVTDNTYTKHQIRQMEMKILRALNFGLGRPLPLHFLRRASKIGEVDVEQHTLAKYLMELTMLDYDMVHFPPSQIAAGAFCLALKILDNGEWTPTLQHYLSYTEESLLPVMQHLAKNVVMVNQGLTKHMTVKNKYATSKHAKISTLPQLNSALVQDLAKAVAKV
GSK3β (h), sequence (P49841 whole entry): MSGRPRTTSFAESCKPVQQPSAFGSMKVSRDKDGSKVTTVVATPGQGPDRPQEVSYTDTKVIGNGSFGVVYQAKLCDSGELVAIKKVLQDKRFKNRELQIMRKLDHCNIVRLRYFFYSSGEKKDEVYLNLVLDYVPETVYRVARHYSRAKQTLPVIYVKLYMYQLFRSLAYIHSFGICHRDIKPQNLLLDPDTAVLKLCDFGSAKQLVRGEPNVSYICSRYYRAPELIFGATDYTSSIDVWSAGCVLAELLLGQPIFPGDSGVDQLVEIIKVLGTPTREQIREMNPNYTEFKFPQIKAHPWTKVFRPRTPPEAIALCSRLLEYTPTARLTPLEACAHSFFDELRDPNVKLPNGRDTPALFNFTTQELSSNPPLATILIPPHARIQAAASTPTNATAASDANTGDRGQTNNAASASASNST
PLK2 (h), sequence (Q9NYY3 whole entry): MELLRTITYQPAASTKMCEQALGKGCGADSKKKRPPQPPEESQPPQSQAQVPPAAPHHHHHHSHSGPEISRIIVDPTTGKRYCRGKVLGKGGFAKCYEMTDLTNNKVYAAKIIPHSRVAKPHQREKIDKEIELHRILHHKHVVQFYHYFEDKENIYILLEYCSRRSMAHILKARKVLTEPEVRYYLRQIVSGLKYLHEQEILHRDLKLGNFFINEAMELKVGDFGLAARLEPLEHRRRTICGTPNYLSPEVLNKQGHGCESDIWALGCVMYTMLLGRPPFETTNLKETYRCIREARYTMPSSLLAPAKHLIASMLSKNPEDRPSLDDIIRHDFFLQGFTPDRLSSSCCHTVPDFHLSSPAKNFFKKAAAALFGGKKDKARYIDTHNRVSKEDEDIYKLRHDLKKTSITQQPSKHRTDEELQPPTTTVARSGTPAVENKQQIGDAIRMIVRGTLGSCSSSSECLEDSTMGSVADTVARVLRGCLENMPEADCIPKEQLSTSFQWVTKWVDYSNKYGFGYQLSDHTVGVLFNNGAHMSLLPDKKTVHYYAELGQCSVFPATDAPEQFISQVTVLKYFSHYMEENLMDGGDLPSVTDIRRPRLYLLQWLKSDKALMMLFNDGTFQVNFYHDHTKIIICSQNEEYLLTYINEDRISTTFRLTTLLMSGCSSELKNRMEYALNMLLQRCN
PLK3 (h), sequence (Q9H4B4 whole entry): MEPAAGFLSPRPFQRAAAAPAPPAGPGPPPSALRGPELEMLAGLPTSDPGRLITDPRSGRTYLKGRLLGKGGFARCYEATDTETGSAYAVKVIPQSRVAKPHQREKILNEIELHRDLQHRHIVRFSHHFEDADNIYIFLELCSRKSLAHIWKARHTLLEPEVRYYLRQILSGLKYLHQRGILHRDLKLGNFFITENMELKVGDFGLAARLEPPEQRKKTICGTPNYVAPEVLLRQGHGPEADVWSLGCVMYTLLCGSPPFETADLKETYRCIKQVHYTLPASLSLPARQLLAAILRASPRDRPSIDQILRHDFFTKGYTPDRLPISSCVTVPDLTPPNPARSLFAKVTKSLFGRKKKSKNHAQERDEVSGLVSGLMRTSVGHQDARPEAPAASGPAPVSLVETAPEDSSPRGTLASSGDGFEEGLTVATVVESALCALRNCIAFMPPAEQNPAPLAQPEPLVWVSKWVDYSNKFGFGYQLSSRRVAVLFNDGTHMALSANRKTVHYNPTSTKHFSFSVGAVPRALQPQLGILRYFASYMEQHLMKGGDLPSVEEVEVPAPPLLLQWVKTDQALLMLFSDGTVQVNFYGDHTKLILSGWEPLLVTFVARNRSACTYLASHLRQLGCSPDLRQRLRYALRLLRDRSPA
AuroraB (h), sequence (Q96GD4 whole entry): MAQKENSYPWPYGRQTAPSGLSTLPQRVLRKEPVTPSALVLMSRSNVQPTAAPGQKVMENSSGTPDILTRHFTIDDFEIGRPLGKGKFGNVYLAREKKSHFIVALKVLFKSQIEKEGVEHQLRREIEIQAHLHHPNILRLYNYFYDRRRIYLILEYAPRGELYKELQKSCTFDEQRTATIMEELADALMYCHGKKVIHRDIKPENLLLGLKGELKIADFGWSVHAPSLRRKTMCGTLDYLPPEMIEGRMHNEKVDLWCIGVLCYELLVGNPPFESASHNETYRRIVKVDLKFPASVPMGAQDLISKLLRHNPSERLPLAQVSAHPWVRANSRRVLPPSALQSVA
PLK4 (h), sequence (O00444 whole entry): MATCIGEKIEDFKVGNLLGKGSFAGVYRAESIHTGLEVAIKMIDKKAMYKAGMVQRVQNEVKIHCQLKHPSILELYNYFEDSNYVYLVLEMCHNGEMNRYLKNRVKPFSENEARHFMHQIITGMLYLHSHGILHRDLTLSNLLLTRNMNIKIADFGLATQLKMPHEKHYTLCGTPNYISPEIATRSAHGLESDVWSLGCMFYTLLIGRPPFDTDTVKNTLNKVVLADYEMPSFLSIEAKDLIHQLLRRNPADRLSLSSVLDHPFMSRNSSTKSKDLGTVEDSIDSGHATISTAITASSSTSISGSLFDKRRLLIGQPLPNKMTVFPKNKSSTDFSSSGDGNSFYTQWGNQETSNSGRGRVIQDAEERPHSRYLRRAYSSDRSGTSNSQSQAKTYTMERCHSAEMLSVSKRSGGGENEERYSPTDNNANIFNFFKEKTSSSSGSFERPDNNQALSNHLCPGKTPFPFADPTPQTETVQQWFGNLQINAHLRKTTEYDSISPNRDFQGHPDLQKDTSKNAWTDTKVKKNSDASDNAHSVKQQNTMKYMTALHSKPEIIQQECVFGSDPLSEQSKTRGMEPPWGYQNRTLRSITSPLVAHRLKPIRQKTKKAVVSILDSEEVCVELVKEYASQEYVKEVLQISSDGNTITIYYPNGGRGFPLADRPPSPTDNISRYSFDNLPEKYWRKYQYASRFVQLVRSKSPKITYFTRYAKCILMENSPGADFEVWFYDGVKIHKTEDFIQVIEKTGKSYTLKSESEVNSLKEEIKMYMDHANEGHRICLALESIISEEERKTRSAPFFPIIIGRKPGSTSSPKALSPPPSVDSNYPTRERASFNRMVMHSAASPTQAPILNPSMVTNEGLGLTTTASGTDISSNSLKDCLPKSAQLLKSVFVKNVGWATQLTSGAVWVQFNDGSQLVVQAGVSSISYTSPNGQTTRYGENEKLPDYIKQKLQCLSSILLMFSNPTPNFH
CDK4/CyclinD1 (h), sequence (P11802 whole entry): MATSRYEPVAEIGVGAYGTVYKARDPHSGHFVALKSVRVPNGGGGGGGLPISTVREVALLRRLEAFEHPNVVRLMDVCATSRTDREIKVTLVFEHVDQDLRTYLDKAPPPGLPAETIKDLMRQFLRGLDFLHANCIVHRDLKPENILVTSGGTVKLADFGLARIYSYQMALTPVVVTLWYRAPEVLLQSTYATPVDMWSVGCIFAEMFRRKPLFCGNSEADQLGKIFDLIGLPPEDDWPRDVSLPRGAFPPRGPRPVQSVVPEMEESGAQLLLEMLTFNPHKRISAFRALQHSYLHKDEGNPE
CDK4/CyclinD1 (h), sequence (P24385 whole entry partner): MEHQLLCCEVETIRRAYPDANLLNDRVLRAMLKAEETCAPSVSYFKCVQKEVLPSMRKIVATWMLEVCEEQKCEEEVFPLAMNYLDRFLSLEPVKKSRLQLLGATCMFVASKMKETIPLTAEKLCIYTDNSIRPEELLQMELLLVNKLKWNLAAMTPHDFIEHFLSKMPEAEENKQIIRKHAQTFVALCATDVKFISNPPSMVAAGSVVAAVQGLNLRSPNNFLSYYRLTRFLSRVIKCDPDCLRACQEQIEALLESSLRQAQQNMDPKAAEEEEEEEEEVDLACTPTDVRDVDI

For `COc1ccc2cc1CNCCNC(=O)C1CCN(CC1)Cc1cc(ccc1N1CCOCC1)Nc1nccc-2n1` [Compound 64], the IC50 in assay [1] was above 10 µM; in assay [2], 1.2 µM; in [3], above 10 µM; in [4], above 10 µM; in assay [5], above 10 µM; in assay [6], above 10 µM. The results for the IC50 in assay [7] and in [8] were above 10 µM and 7.41 µM, respectively.
On to `CC(C)Nc1cc2cc(c1)Nc1nccc(n1)-c1ccc(cc1)CN(C)CCCNC(=O)[C@H](CO)NC2` [Compound 111], for which the IC50 in assay [1] is above 10 µM; in [9], above 10 µM; in assay [10], above 10 µM; in [2], 0.813 µM; in [3] it was above 10 µM; in [4], above 10 µM. Also, the IC50 in assay [11] is above 10 µM; in assay [12], above 10 µM; in [13], above 10 µM; in [6], above 3.02 µM; in assay [7], above 10 µM; in assay [8], above 10 µM.
With `CC1(C)NCc2cc(ccc2N2CCOCC2)Nc2nccc(n2)-c2cccc(c2)OCCCNC1=O` [Compound 90], the IC50 in assay [1] was 4.68 µM; in assay [9], 6.03 µM; in assay [10], 1.7 µM; in assay [2] it was 0.646 µM; in assay [3], above 10 µM; in assay [4], 0.417 µM. Besides, the IC50 was 8.71 µM in assay [11]; 5.37 µM in assay [12]; 4.57 µM in assay [13]; above 10 µM in assay [6]; above 10 µM in [7]; above 10 µM in assay [8].
Regarding `CN1CCNC(=O)CN2CCN(CC2)Cc2cc(Br)cc(c2)Nc2nccc(n2)-c2ccc(cc2)C1` [Compound 129], the IC50 in assay [1] is 4.17 µM; in assay [9] it was above 10 µM; in [10], 8.51 µM; in assay [2], 1.12 µM; in assay [3], above 3.02 µM; in assay [4] it was 0.49 µM. The IC50 in assay [11] is above 10 µM; in assay [12], above 10 µM; in [13], 4.9 µM; in [6], above 10 µM; in [7] it was above 10 µM; in assay [8], above 10 µM.
On to `O=C1NCCNCc2ccc(cc2)-c2ccnc(n2)Nc2ccc(N3CCOCC3)c(c2)CN[C@H]1Cc1ccccc1` [Compound 117], for which the IC50 in assay [1] was above 10 µM; in assay [9], 6.03 µM; in assay [10], 4.27 µM; in assay [2], 2.24 µM; in [3], above 10 µM; in assay [4], 1 µM. In addition, the IC50 is 7.59 µM in [11]; above 10 µM in [12]; 3.89 µM in [13]; above 10 µM in assay [6]; above 10 µM in assay [7]; above 10 µM in [8].
On to `COc1ccc2cc1CN(C)CCNC(=O)[C@H](CO)NCc1cccc(c1)Nc1nccc-2n1` [Compound 120], for which the IC50 is above 10 µM in assay [1]; above 10 µM in [9]; above 10 µM in [10]; 7.08 µM in assay [2]; above 10 µM in assay [3]; above 10 µM in assay [4]. Also, the IC50 in assay [11], in [12], in assay [13], in assay [6], in assay [7] and in assay [8] was above 10 µM throughout.
With `O=C1NCCCOc2cccc(c2)-c2ccnc(n2)Nc2ccc(N3CCOCC3)c(c2)CN2C[C@H](O)C[C@@H]12` [Compound 99], the IC50 in assay [1] is above 10 µM; in [9], 7.76 µM; in assay [10], 6.92 µM; in assay [2] it was 3.63 µM; in assay [3] it was above 10 µM; in [4] it was 0.417 µM. Further, the IC50 in assay [11] was above 10 µM; in assay [12], above 10 µM; in assay [13], 6.92 µM; in assay [6], above 10 µM; in assay [7] it was above 10 µM; in [8], above 10 µM.
